Laboratory results: ChEMBL document CHEMBL4251634, “Synthesis and antimicrobial activity of pyrimidinyl 1,3,4-oxadiazoles, 1,3,4-thiadiazoles and 1,2,4-triazoles” (2018)
Calls of active or inactive are those of the source. The calls are words filed in the database; no cut-off is given here.

Experiments:
Type in all cases: functional
Penicillium chrysogenum [1] = test: Antifungal activity against Penicillium chrysogenum assessed as diameter of inhibition zone at 100 ug/well after 48 hrs by agar well diffusion method; details: for zone of inhibition at 100 µg/disc: read-out: DIZ
Staphylococcus aureus [2] = test: Antibacterial activity against Staphylococcus aureus assessed as diameter of inhibition zone at 100 ug/well after 24 hrs by agar well diffusion method; details: for zone of inhibition at 100 µg/disc: read-out: DIZ
Klebsiella pneumoniae [3] = test: Antibacterial activity against Klebsiella pneumoniae assessed as diameter of inhibition zone at 12.5 ug/well after 24 hrs by agar well diffusion method; details: for zone of inhibition at 12.5 µg/disc: read-out: DIZ
Bacillus subtilis [4] = test: Antibacterial activity against Bacillus subtilis assessed as diameter of inhibition zone at 50 ug/well after 24 hrs by agar well diffusion method; details: for zone of inhibition at 50 µg/disc: read-out: DIZ
Penicillium chrysogenum [5] = test: Antifungal activity against Penicillium chrysogenum assessed as diameter of inhibition zone at 25 ug/well after 48 hrs by agar well diffusion method; details: for zone of inhibition at 25 µg/disc: read-out: DIZ
Aspergillus niger [6] = test: Antifungal activity against Aspergillus niger assessed as diameter of inhibition zone at 25 ug/well after 48 hrs by agar well diffusion method; details: for zone of inhibition at 25 µg/disc: read-out: DIZ
Aspergillus niger [7] = test: Antifungal activity against Aspergillus niger assessed as diameter of inhibition zone at 100 ug/well after 48 hrs by agar well diffusion method; details: for zone of inhibition at 100 µg/disc: read-out: DIZ
Penicillium chrysogenum [8] = test: Antifungal activity against Penicillium chrysogenum assessed as diameter of inhibition zone at 12.5 ug/well after 48 hrs by agar well diffusion method; details: for zone of inhibition at 12.5 µg/disc: read-out: DIZ
Klebsiella pneumoniae [9] = test: Antibacterial activity against Klebsiella pneumoniae assessed as diameter of inhibition zone at 50 ug/well after 24 hrs by agar well diffusion method; details: for zone of inhibition at 50 µg/disc: read-out: DIZ
Staphylococcus aureus [10] = test: Antibacterial activity against Staphylococcus aureus assessed as diameter of inhibition zone at 12.5 ug/well after 24 hrs by agar well diffusion method; details: for zone of inhibition at 12.5 µg/disc: read-out: DIZ
Bacillus subtilis [11] = test: Antibacterial activity against Bacillus subtilis assessed as diameter of inhibition zone at 12.5 ug/well after 24 hrs by agar well diffusion method; details: for zone of inhibition at 12.5 µg/disc: read-out: DIZ
Penicillium chrysogenum [12] = test: Antifungal activity against Penicillium chrysogenum assessed as diameter of inhibition zone at 50 ug/well after 48 hrs by agar well diffusion method; details: for zone of inhibition at 50 µg/disc: read-out: DIZ
Pseudomonas aeruginosa [13] = test: Antibacterial activity against Pseudomonas aeruginosa assessed as diameter of inhibition zone at 50 ug/well after 24 hrs by agar well diffusion method; details: read-out: DIZ
Bacillus subtilis [14] = test: Antibacterial activity against Bacillus subtilis assessed as diameter of inhibition zone at 100 ug/well after 24 hrs by agar well diffusion method; details: for zone of inhibition at 100 µg/disc: read-out: DIZ
Aspergillus niger [15] = test: Antifungal activity against Aspergillus niger assessed as diameter of inhibition zone at 50 ug/well after 48 hrs by agar well diffusion method; details: for zone of inhibition at 50 µg/disc: read-out: DIZ
Staphylococcus aureus [16] = test: Antibacterial activity against Staphylococcus aureus assessed as diameter of inhibition zone at 25 ug/well after 24 hrs by agar well diffusion method; details: for zone of inhibition at 25 µg/disc: read-out: DIZ
Klebsiella pneumoniae [17] = test: Antibacterial activity against Klebsiella pneumoniae assessed as diameter of inhibition zone at 100 ug/well after 24 hrs by agar well diffusion method; details: read-out: DIZ
Pseudomonas aeruginosa [18] = test: Antibacterial activity against Pseudomonas aeruginosa assessed as diameter of inhibition zone at 100 ug/well after 24 hrs by agar well diffusion method; details: read-out: DIZ
Pseudomonas aeruginosa [19] = test: Antibacterial activity against Pseudomonas aeruginosa assessed as diameter of inhibition zone at 12.5 ug/well after 24 hrs by agar well diffusion method; details: for zone of inhibition at 12.5 µg/disc: read-out: DIZ
Aspergillus niger [20] = test: Antifungal activity against Aspergillus niger assessed as diameter of inhibition zone at 12.5 ug/well after 48 hrs by agar well diffusion method; details: for zone of inhibition at 12.5 µg/disc: read-out: DIZ
Pseudomonas aeruginosa [21] = test: Antibacterial activity against Pseudomonas aeruginosa assessed as diameter of inhibition zone at 25 ug/well after 24 hrs by agar well diffusion method; details: for zone of inhibition at 25 µg/disc: read-out: DIZ
Staphylococcus aureus [22] = test: Antibacterial activity against Staphylococcus aureus assessed as diameter of inhibition zone at 50 ug/well after 24 hrs by agar well diffusion method; details: for zone of inhibition at 50 µg/disc: read-out: DIZ
Klebsiella pneumoniae [23] = test: Antibacterial activity against Klebsiella pneumoniae assessed as diameter of inhibition zone at 25 ug/well after 24 hrs by agar well diffusion method; details: for zone of inhibition at 25 µg/disc: read-out: DIZ
Bacillus subtilis [24] = test: Antibacterial activity against Bacillus subtilis assessed as diameter of inhibition zone at 25 ug/well after 24 hrs by agar well diffusion method; details: for zone of inhibition at 25 µg/disc: read-out: DIZ

Row | Compound | zone of inhibition at 100 µg/disc (Penicillium chrysogenum [1]) [mm] | zone of inhibition at 12.5 µg/disc (Klebsiella pneumoniae [3]) [mm] | zone of inhibition at 50 µg/disc (Bacillus subtilis [4]) [mm] | zone of inhibition at 25 µg/disc (Penicillium chrysogenum [5]) [mm] | zone of inhibition at 25 µg/disc (Aspergillus niger [6]) [mm] | zone of inhibition at 100 µg/disc (Aspergillus niger [7]) [mm] | zone of inhibition at 12.5 µg/disc (Penicillium chrysogenum [8]) [mm] | zone of inhibition at 50 µg/disc (Klebsiella pneumoniae [9]) [mm] | zone of inhibition at 50 µg/disc (Penicillium chrysogenum [12]) [mm] | zone of inhibition at 50 µg/disc (Pseudomonas aeruginosa [13]) [mm] | zone of inhibition at 100 µg/disc (Bacillus subtilis [14]) [mm] | zone of inhibition at 50 µg/disc (Aspergillus niger [15]) [mm] | zone of inhibition at 100 µg/disc (Klebsiella pneumoniae [17]) [mm] | zone of inhibition at 100 µg/disc (Pseudomonas aeruginosa [18]) [mm] | zone of inhibition at 12.5 µg/disc (Pseudomonas aeruginosa [19]) [mm] | zone of inhibition at 12.5 µg/disc (Aspergillus niger [20]) [mm] | zone of inhibition at 25 µg/disc (Pseudomonas aeruginosa [21]) [mm] | zone of inhibition at 25 µg/disc (Klebsiella pneumoniae [23]) [mm] | zone of inhibition at 25 µg/disc (Bacillus subtilis [24]) [mm] | diameter of the inhibition zone (DIZ) (Staphylococcus aureus [10]) | also measured
1 | Cc1cc(SCc2nnc(-c3ccc(Br)cc3)s2)nc(SCc2nnc(-c3ccc(Br)cc3)s2)n1 | 20 | 24 | 21 | 15 | 24 | 30 | 13 | 28 | 17 | 25 | 24 | 26 | 31 | 29 | 19 | 22 | 23 | 26 | 19 |  | zone of inhibition at 100 µg/disc (Staphylococcus aureus [2]): 17 mm; zone of inhibition at 12.5 µg/disc (Staphylococcus aureus [10]): 11 mm; zone of inhibition at 12.5 µg/disc (Bacillus subtilis [11]): 17 mm; zone of inhibition at 25 µg/disc (Staphylococcus aureus [16]): 13 mm; zone of inhibition at 50 µg/disc (Staphylococcus aureus [22]): 15 mm
2 | Cc1ccc(-c2nnc(CSc3cc(C)nc(SCc4nnc(-c5ccc(C)cc5)n4N)n3)n2N)cc1 | 10 | 12 | 9 |  | 12 | 16 |  | 15 | 8 | 14 | 11 | 14 | 18 | 18 | 9 | 10 | 11 | 13 | 7 | inactive | diameter of the inhibition zone (DIZ) (Staphylococcus aureus [2]): inactive; diameter of the inhibition zone (DIZ) (Penicillium chrysogenum [5]): inactive; diameter of the inhibition zone (DIZ) (Penicillium chrysogenum [8]): inactive; diameter of the inhibition zone (DIZ) (Bacillus subtilis [11]): inactive; diameter of the inhibition zone (DIZ) (Staphylococcus aureus [16]): inactive; diameter of the inhibition zone (DIZ) (Staphylococcus aureus [22]): inactive
3 | Cc1cc(SCc2nnc(-c3ccccc3)o2)nc(SCc2nnc(-c3ccccc3)o2)n1 | 13 |  |  | 10 | 16 | 21 | 8 | 9 | 11 | 11 | 7 | 18 | 12 | 14 | 7 | 14 | 9 | 7 |  | inactive | diameter of the inhibition zone (DIZ) (Staphylococcus aureus [2]): inactive; diameter of the inhibition zone (DIZ) (Klebsiella pneumoniae [3]): inactive; diameter of the inhibition zone (DIZ) (Bacillus subtilis [4]): inactive; diameter of the inhibition zone (DIZ) (Bacillus subtilis [11]): inactive; diameter of the inhibition zone (DIZ) (Staphylococcus aureus [16]): inactive; diameter of the inhibition zone (DIZ) (Staphylococcus aureus [22]): inactive; diameter of the inhibition zone (DIZ) (Bacillus subtilis [24]): inactive
4 | Cc1ccc(-c2nnc(CSc3cc(C)nc(SCc4nnc(-c5ccc(C)cc5)s4)n3)s2)cc1 |  | 14 | 11 |  | 11 | 15 |  | 18 |  | 15 | 13 | 13 | 20 | 19 | 10 | 9 | 12 | 16 | 10 | inactive | diameter of the inhibition zone (DIZ) (Penicillium chrysogenum [1]): inactive; zone of inhibition at 100 µg/disc (Staphylococcus aureus [2]): 8 mm; diameter of the inhibition zone (DIZ) (Penicillium chrysogenum [5]): inactive; diameter of the inhibition zone (DIZ) (Penicillium chrysogenum [8]): inactive; zone of inhibition at 12.5 µg/disc (Bacillus subtilis [11]): 8 mm; diameter of the inhibition zone (DIZ) (Penicillium chrysogenum [12]): inactive; diameter of the inhibition zone (DIZ) (Staphylococcus aureus [16]): inactive; diameter of the inhibition zone (DIZ) (Staphylococcus aureus [22]): inactive
5 | Cc1cc(SCc2nnc(-c3ccc(Cl)cc3)o2)nc(SCc2nnc(-c3ccc(Cl)cc3)o2)n1 | 17 | 10 | 7 | 13 | 20 | 25 | 11 | 13 | 15 | 14 | 9 | 22 | 16 | 17 | 10 | 18 | 12 | 11 |  | inactive | diameter of the inhibition zone (DIZ) (Staphylococcus aureus [2]): inactive; diameter of the inhibition zone (DIZ) (Bacillus subtilis [11]): inactive; diameter of the inhibition zone (DIZ) (Staphylococcus aureus [16]): inactive; diameter of the inhibition zone (DIZ) (Staphylococcus aureus [22]): inactive; diameter of the inhibition zone (DIZ) (Bacillus subtilis [24]): inactive
6 | COc1ccc(-c2nnc(CSc3cc(C)nc(SCc4nnc(-c5ccc(OC)cc5)s4)n3)s2)cc1 |  |  |  |  |  |  |  |  |  | 8 |  |  | 13 | 10 |  |  |  |  |  | inactive | diameter of the inhibition zone (DIZ) (Penicillium chrysogenum [1]): inactive; diameter of the inhibition zone (DIZ) (Staphylococcus aureus [2]): inactive; diameter of the inhibition zone (DIZ) (Klebsiella pneumoniae [3]): inactive; diameter of the inhibition zone (DIZ) (Bacillus subtilis [4]): inactive; diameter of the inhibition zone (DIZ) (Penicillium chrysogenum [5]): inactive; diameter of the inhibition zone (DIZ) (Aspergillus niger [6]): inactive; diameter of the inhibition zone (DIZ) (Aspergillus niger [7]): inactive; diameter of the inhibition zone (DIZ) (Penicillium chrysogenum [8]): inactive; diameter of the inhibition zone (DIZ) (Klebsiella pneumoniae [9]): inactive; diameter of the inhibition zone (DIZ) (Bacillus subtilis [11]): inactive; diameter of the inhibition zone (DIZ) (Penicillium chrysogenum [12]): inactive; diameter of the inhibition zone (DIZ) (Bacillus subtilis [14]): inactive; diameter of the inhibition zone (DIZ) (Aspergillus niger [15]): inactive; diameter of the inhibition zone (DIZ) (Staphylococcus aureus [16]): inactive; diameter of the inhibition zone (DIZ) (Pseudomonas aeruginosa [19]): inactive; diameter of the inhibition zone (DIZ) (Aspergillus niger [20]): inactive; diameter of the inhibition zone (DIZ) (Pseudomonas aeruginosa [21]): inactive; diameter of the inhibition zone (DIZ) (Staphylococcus aureus [22]): inactive; diameter of the inhibition zone (DIZ) (Klebsiella pneumoniae [23]): inactive; diameter of the inhibition zone (DIZ) (Bacillus subtilis [24]): inactive
7 | Cc1cc(SCc2nnc(-c3ccc(Br)cc3)n2N)nc(SCc2nnc(-c3ccc(Br)cc3)n2N)n1 | 24 | 21 | 18 | 19 | 29 | 34 | 17 | 25 | 21 | 22 | 20 | 31 | 28 | 25 | 16 | 27 | 20 | 23 | 16 |  | zone of inhibition at 100 µg/disc (Staphylococcus aureus [2]): 14 mm; zone of inhibition at 12.5 µg/disc (Staphylococcus aureus [10]): 9 mm; zone of inhibition at 12.5 µg/disc (Bacillus subtilis [11]): 15 mm; zone of inhibition at 25 µg/disc (Staphylococcus aureus [16]): 10 mm; zone of inhibition at 50 µg/disc (Staphylococcus aureus [22]): 12 mm
8 | Cc1cc(SCc2nnc(-c3ccc([N+](=O)[O-])cc3)o2)nc(SCc2nnc(-c3ccc([N+](=O)[O-])cc3)o2)n1 | 19 | 15 | 13 | 14 | 22 | 27 | 12 | 19 | 16 | 16 | 15 | 24 | 21 | 21 | 11 | 20 | 14 | 17 | 11 | inactive | zone of inhibition at 100 µg/disc (Staphylococcus aureus [2]): 10 mm; zone of inhibition at 12.5 µg/disc (Bacillus subtilis [11]): 9 mm; zone of inhibition at 25 µg/disc (Staphylococcus aureus [16]): 7 mm; zone of inhibition at 50 µg/disc (Staphylococcus aureus [22]): 8 mm
